Measured values taken from ChEMBL document CHEMBL5291721, “A preclinical secondary pharmacology resource illuminates target-adverse drug reaction associations of marketed drugs” (Nat Commun, 2023).

What was measured:
[1] = biological target: Delta-type opioid receptor (Homo sapiens, UniProt P41143)
[2] = biological target: Sodium-dependent noradrenaline transporter (Homo sapiens, UniProt P23975)
[3] = biological target: Voltage-gated inwardly rectifying potassium channel KCNH2 (Homo sapiens, UniProt Q12809); format: functional
Sequence of Voltage-gated inwardly rectifying potassium channel KCNH2 (Q12809 whole entry): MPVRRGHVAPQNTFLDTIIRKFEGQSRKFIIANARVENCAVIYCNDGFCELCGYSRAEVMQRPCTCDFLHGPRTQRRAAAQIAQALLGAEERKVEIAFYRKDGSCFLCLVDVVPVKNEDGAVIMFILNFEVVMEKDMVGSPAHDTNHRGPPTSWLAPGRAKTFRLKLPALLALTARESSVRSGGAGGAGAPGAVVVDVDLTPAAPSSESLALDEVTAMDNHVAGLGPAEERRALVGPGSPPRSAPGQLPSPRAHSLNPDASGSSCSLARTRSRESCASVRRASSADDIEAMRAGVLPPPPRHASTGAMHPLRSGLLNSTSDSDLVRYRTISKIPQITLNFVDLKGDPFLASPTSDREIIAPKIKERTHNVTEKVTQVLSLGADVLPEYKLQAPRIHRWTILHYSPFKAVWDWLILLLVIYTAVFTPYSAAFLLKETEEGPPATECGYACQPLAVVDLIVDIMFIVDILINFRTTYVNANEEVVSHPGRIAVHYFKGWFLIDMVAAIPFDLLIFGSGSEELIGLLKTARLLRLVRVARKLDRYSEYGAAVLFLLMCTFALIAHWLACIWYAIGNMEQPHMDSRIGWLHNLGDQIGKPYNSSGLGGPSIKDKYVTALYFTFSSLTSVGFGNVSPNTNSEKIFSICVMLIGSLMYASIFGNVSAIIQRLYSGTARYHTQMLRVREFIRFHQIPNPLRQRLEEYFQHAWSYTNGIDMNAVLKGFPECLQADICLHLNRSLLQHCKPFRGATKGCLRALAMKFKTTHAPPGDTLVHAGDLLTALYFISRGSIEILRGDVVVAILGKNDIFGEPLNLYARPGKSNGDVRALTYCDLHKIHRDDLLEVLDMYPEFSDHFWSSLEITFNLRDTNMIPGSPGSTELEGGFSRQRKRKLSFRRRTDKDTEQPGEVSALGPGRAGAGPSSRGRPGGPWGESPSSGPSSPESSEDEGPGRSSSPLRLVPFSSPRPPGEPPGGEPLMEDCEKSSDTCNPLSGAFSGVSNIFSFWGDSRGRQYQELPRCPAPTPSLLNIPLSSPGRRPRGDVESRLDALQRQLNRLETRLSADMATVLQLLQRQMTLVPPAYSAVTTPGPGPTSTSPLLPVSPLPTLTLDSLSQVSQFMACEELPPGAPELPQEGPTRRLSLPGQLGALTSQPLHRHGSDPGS

[4] = biological target: T1, 5-hydroxytryptamine receptor 2C (Homo sapiens, UniProt P28335)
T1 sequence (P28335 whole entry): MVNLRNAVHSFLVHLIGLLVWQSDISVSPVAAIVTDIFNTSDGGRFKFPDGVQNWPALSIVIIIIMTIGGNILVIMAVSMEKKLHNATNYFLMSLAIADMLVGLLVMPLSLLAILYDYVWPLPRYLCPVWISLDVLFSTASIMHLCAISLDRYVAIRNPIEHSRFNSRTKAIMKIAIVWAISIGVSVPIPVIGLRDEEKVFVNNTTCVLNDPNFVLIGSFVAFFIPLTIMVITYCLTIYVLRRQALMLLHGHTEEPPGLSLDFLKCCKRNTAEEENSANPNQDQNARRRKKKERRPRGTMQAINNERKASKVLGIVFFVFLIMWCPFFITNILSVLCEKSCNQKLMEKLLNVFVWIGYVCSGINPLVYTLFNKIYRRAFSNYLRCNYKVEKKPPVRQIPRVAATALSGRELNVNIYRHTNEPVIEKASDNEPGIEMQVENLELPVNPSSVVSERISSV

[5] = biological target: 3',5'-cyclic-AMP phosphodiesterase 4D (Homo sapiens, UniProt Q08499); format: functional
Sequence of 3',5'-cyclic-AMP phosphodiesterase 4D (Q08499 whole entry): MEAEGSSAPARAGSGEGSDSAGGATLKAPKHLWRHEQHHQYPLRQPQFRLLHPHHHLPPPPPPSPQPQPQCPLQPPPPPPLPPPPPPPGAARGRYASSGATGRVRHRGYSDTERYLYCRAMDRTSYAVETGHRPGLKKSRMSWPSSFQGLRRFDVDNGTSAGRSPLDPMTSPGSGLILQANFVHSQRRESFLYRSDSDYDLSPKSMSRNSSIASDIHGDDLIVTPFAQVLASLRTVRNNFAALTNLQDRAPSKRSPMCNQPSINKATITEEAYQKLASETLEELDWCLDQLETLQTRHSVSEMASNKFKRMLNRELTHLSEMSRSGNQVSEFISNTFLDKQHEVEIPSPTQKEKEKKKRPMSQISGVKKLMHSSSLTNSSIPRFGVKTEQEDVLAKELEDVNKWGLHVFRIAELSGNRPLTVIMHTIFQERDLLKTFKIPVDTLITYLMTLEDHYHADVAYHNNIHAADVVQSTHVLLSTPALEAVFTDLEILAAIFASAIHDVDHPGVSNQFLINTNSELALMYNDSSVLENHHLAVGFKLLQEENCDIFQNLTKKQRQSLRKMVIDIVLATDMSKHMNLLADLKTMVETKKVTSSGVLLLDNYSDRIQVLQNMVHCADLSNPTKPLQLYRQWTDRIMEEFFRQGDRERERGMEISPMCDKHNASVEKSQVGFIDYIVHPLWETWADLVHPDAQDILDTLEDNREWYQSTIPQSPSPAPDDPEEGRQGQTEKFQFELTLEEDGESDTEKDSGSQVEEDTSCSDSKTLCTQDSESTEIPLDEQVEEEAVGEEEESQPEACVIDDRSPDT

[6] = biological target: Melanocortin receptor 3 (Homo sapiens, UniProt P41968)
Sequence of Melanocortin receptor 3 (P41968 whole entry): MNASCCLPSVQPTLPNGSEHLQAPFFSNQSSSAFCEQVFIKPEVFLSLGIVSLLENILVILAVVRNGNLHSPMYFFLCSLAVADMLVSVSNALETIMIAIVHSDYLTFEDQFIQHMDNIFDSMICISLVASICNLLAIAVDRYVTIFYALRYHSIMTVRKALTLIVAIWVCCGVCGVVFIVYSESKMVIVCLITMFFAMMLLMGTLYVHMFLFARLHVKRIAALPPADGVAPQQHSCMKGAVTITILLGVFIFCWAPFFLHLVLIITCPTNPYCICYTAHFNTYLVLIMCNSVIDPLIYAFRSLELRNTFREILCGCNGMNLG

[7] = biological target: Sodium-dependent serotonin transporter (Homo sapiens, UniProt P31645)
Sequence of Sodium-dependent serotonin transporter (P31645 whole entry): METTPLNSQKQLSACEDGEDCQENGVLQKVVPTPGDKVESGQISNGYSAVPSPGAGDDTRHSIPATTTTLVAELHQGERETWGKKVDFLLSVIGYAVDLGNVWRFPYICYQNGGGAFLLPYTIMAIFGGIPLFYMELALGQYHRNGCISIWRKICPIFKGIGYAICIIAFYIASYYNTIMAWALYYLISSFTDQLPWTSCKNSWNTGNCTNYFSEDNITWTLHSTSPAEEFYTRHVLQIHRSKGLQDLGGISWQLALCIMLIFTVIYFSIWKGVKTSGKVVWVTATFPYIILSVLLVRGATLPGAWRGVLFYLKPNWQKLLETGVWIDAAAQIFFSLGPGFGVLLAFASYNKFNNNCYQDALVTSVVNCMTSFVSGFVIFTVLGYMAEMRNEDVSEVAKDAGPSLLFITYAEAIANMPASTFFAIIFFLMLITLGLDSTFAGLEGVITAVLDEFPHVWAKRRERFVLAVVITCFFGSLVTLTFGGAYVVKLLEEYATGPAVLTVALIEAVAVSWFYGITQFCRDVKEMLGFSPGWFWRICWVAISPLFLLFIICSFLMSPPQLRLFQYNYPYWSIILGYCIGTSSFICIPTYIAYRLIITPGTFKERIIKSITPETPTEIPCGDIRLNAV

[8] = biological target: Histamine H2 receptor (Homo sapiens, UniProt P25021); format: functional, cell-based
[9] = biological target: Histamine H1 receptor (Homo sapiens, UniProt P35367)
Sequence of Histamine H1 receptor (P35367 whole entry): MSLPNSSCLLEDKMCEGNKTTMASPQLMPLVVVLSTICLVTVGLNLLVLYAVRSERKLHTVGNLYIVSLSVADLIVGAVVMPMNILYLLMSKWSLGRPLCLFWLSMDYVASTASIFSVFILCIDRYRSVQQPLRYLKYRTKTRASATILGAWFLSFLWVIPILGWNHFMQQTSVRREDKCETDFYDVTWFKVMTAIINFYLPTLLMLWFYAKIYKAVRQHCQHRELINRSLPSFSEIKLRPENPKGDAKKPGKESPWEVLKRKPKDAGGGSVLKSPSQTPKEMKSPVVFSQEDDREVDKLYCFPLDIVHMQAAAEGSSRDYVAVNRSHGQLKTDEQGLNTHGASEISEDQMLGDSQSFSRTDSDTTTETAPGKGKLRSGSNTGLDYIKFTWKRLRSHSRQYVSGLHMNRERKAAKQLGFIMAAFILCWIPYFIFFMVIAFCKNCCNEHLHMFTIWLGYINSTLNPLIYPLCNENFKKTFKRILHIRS

[10] = biological target: 5-hydroxytryptamine receptor 2A (Homo sapiens, UniProt P28223); format: functional, cell-based
[11] = biological target: Vasopressin V1a receptor (Homo sapiens, UniProt P37288)
Sequence of Vasopressin V1a receptor (P37288 whole entry): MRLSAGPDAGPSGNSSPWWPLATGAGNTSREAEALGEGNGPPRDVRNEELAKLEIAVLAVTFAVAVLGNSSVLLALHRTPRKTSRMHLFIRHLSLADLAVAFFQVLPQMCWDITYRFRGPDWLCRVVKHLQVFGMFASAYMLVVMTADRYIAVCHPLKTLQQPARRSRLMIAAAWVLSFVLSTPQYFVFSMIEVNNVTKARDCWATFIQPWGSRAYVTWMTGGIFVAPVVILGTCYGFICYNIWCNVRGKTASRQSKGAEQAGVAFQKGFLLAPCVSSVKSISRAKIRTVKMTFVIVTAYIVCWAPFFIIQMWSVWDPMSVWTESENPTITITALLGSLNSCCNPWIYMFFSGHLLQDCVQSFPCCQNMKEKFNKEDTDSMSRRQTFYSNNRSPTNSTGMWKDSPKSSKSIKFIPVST

[12] = biological target: T2, Muscarinic acetylcholine receptor M1 (Homo sapiens, UniProt P11229); format: functional
T2 sequence (P11229 whole entry): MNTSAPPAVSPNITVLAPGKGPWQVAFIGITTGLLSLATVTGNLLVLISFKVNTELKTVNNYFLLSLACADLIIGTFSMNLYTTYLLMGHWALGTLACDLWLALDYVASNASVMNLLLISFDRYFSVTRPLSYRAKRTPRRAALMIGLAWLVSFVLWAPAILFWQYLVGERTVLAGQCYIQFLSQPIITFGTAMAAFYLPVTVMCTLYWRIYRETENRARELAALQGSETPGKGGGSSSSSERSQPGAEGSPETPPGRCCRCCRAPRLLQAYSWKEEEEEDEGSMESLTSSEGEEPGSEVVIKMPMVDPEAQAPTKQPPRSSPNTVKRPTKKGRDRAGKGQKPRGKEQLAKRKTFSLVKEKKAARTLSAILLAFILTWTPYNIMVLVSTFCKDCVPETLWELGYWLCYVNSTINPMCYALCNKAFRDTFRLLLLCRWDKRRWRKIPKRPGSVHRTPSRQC

[13] = biological target: T3, Adenosine receptor A1 (Homo sapiens, UniProt P30542)
T3 sequence (P30542 whole entry): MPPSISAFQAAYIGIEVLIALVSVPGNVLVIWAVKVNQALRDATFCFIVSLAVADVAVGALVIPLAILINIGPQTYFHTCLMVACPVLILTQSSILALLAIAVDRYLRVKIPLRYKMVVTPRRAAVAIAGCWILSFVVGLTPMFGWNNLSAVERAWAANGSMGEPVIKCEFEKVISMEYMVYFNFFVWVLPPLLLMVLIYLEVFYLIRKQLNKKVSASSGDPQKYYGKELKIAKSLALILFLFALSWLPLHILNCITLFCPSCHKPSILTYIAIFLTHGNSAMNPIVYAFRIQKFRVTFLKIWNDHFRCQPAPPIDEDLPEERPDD

[14] = biological target: T4, Gastrin/cholecystokinin type B receptor (Homo sapiens, UniProt P32239)
T4 sequence (P32239 whole entry): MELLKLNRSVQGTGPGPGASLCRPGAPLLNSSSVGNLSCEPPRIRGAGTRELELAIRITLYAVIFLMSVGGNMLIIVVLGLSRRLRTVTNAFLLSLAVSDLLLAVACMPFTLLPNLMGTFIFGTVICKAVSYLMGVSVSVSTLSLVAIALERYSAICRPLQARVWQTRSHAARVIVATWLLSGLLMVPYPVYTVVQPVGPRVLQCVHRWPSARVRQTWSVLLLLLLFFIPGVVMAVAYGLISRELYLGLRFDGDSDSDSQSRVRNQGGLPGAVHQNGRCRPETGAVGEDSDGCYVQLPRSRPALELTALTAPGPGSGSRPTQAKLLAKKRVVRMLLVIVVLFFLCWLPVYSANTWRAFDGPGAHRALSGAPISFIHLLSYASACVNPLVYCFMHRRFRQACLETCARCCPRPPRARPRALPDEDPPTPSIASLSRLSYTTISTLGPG

[15] = biological target: T5, Endothelin-1 receptor (Homo sapiens, UniProt P25101)
T5 sequence (P25101 whole entry): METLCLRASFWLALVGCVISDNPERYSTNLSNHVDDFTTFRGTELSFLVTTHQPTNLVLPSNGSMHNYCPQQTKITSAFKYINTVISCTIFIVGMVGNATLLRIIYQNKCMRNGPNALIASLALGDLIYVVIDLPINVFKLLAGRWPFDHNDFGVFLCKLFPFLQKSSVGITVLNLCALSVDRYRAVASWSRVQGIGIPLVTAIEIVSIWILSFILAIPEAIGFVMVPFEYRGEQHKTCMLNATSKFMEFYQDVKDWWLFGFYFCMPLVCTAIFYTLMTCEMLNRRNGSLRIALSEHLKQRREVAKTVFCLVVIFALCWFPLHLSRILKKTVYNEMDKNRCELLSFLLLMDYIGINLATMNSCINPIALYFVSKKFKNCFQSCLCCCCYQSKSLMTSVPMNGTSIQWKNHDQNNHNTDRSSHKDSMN

[16] = biological target: Mu-type opioid receptor (Homo sapiens, UniProt P35372); assay: biochemical; format: functional
Also: assay procedure not described here.

Sequence of Delta-type opioid receptor (P41143 whole entry): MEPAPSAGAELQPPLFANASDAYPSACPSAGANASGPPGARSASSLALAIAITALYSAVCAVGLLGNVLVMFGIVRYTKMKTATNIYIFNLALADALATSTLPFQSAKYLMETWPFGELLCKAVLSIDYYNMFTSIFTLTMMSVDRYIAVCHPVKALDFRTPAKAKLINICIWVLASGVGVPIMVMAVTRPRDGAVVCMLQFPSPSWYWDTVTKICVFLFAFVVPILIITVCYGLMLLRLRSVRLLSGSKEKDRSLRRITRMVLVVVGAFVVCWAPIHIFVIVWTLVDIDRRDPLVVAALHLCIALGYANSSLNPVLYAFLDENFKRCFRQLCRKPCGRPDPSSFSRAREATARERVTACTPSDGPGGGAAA
Sequence of Sodium-dependent noradrenaline transporter (P23975 whole entry): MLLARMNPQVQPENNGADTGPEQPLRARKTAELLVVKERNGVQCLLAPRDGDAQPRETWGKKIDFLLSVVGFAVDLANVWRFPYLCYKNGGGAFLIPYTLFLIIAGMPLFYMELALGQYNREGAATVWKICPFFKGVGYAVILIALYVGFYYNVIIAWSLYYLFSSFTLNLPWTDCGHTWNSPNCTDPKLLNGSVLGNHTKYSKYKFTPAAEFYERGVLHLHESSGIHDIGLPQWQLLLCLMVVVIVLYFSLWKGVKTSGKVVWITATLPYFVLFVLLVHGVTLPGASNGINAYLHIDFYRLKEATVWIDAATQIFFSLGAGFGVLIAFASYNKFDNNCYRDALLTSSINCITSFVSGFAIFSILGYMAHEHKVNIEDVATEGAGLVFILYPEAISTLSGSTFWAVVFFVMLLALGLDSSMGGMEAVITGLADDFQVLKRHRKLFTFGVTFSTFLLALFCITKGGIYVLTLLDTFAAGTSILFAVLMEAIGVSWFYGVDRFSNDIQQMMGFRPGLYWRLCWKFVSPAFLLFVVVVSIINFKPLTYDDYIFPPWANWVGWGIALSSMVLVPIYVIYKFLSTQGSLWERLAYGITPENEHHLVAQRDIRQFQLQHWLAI

Molecule | AC50 [1] [µM] | AC50 [2] [µM] | AC50 ([3]; read-out: AC50) [µM] | AC50 [4] [µM] | AC50 [5] [µM] | AC50 [6] [µM] | AC50 [7] [µM] | AC50 [8] [µM] | AC50 [9] [µM] | AC50 [10] [µM] | AC50 [11] [µM] | AC50 [12] [µM] | AC50 [13] [µM] | AC50 [14] [µM] | AC50 [15] [µM] | AC50 [16] [µM] | AC50 ([3]; human, cellular components) [µM]
Cc1cc(C(C)(C)C)c(O)c(C)c1CC1=NCCN1 [OXYMETAZOLINE] | > 30 | > 30 | > 30 | 6.8 | > 30 | > 30 |  |  |  |  |  |  |  |  |  |  | 
C[C@H]1COc2c(C3(N)CC3)c(F)cc3c(=O)c(C(=O)O)cn1c23 [PAZUFLOXACIN] | > 30 | > 10 | > 30 | > 30 | > 30 | > 10 | > 10 | > 10 | > 10 | > 10 | > 10 | > 10 | > 10 |  |  |  | 
C[C@@H]1O[C@@H](O[C@@H]2C=C3CC[C@@H]4[C@H](CC[C@]5(C)[C@@H](c6ccc(=O)oc6)CC[C@]45O)[C@@]3(C)CC2)[C@H](O)[C@H](O)[C@H]1O [PROSCILLARIDIN] | > 30 | > 30 | > 30 | > 30 | > 30 | > 30 |  | > 30 |  |  |  |  | > 30 | > 30 | > 30 | > 30 | 
CC/C(=C(\c1ccccc1)c1ccc(OCCN(C)C)cc1)c1ccccc1 [TAMOXIFEN] | > 30 | 8.83 |  | 7 |  |  |  | > 10 |  |  |  |  |  |  |  |  | 
C#C[C@]1(O)CC[C@H]2[C@@H]3[C@H](C)CC4=C(CCC(=O)C4)[C@H]3CC[C@@]21C [TIBOLONE] | > 30 | > 30 | > 30 | > 30 | 6.9 | > 30 |  | > 30 |  |  |  |  | > 30 | > 30 | > 30 | > 30 | 
COc1cccc(C2(O)CCCCC2CN(C)C)c1 (centres undefined) [TRAMADOL] | > 30 | > 10 | > 30 | > 30 | > 30 | > 30 |  | > 10 |  |  | > 10 |  | > 30 | > 30 | > 30 |  | 
Cc1nnc2n1-c1ccc(Cl)cc1C(c1ccccc1Cl)=NC2 [TRIAZOLAM] | > 30 | > 30 | > 30 | > 30 | 33 | > 30 | > 30 | > 10 | > 10 | > 30 | > 30 | > 10 | > 30 | > 30 |  |  | 
CC1(C)CCC(CN2CCN(c3ccc(C(=O)NS(=O)(=O)c4ccc(NCC5CCOCC5)c([N+](=O)[O-])c4)c(Oc4cnc5[nH]ccc5c4)c3)CC2)=C(c2ccc(Cl)cc2)C1 [VENETOCLAX] | > 30 | 11 | > 30 |  | > 30 | > 30 | > 30 |  | > 30 |  |  | > 30 |  |  |  |  | 
THIMEROSAL |  |  |  |  |  |  |  |  |  |  |  |  |  |  |  |  | > 30
